Assay results: patent publication EP1978972B1, “USE OF ALKYLGLUCOSIDE ESTERS AS BETA-DEFENSIN INDUCERS” (Pierre Fabre Dermo-Cosmétique, priority 2006, dated 2007)

System: hBD-2
Format: cell-based, human
Conditions: skin explant, systemic
Source text: Il est connu de WO 97/45101 que les esters d'α-alkylglucoside peuvent être utilisés comme agent anti-microbien et/ou anti-fongique pour agir en tant que conservateur dans une composition, pour la préserver d'un développement microbien. D'autre part, les propriétés moussantes des esters de méthyl glucose sont décrites dans Desai et al (« Sofw Journal Seife, Oele, Fette, Wachse, Verlag für chemische Industrie » 1991). • Modèle cellulaire : lignée cellulaire HaCat, kératynocytes d'origine humaine, primoculture de kératinocytes humains • Modèle tissulaire : • Explants de peau normale provenant de déchet opératoire de chirurgie esthétique • Explants de gencive normale provenant de déchet opératoire de chirurgie implantatoire ou d'épithélium gingival reconstruit à partir de cellules épithéliales orales primaires • ➢ Les cellules HaCat sont ensemencées et cultivées en plaque 6 puits à 200 000 cellules/puits sous un volume de 2 ml de milieu de culture DMEM 1640 : (Ref: Invitrogen) complémenté par 10 % de sérum de veau foetal (SVF, Ref : CH30160.02 Perbio-Hyclone) pendant 18 h (sur la nuit). • ➢ A T0 les cellules sont lavées avec du tampon Phosphate (PBS, Ref: 52100-039 Invitrogen) puis privées en sérum pour les rendre quiescentes pendant 24 h (ralentissement de leur croissance et élimination de toute trace de facteurs susceptibles de perturber les effets induits par les traitements ultérieurs). • ➢ A T0+24 h les cellules sont traitées par des cytokines pro-inflammatoires (TNF-α à 10 ng/ml, IL1-β à 10 ng/ml) ou des éléments bactériens (LPS à 50 ng/ml, SEB à 100 ng/ml) ou des actifs potentiels de type « alkyle mono- ou di-ester d'α,β-butylglucoside » dilués dans du DMEM (1 ml/puits); La durée du traitement est de 3 h à 37°C. • ➢ Les kératinocytes primaires sont préparés à partir de peau normale provenant de déchet opératoire de chirurgie esthétique. Ils sont ensemencés et cultivés en plaque 24 puits à 60 000 cellules/puits sous un volume de 0,5 ml de milieu de culture KSFM (Ref : 37010 Invitrogen) complémenté par de l'EGF (Epidermal Growth Factor) à 1,5 ng/ml et du BPE (bovine pituitary extract) à 25 µg/ml pendant 24 h. • ➢ A J0, le milieu est remplacé par 0,5 ml de milieu KSFM complet, additionné de 1,2 nM de calcium. • ➢ A J+3, les cellules sont traitées par des cytokines pro-inflammatoires TNF-α et IL 1-β à 10 ng/ml ou des actifs potentiels de type « alkyle mono- ou di-ester d'α,β-butylglucoside » dilués dans 0,3 ml de milieu KSFM complet, en présence de 1,2 nM de calcium. […]

Substance: laurate de butylglucoside [αβ-LBG brut]
- incubation time from which hBD-2 induction is effective: ≤ 1 h
- synthèse des transcrits hBD-2 (30 µg/ml, in words): capable d'induire la synthèse des transcrits hBD-2
